Structures are written as SMILES. Calls of active or inactive are those of the source. The calls are words filed in the database; no cut-off is given here.

This note sets out measurements from ChEMBL document CHEMBL5653627 (J Neurochem, 2017).

Data set [1] deals with SMA-560. Kind of data set: Induction of apoptosis in mouse SMA-560 cells assessed as necrotic cells at 0.1 uM incubated for 72 hrs by Annexin V-FITC/PI staining based flow cytometric analysis (reference value: 13.5%). The format is functional. Background: A flow cytometer gives signals particle by particle.
Data set [2] relates to SMA-560. Kind of data set: Induction of cell cycle arrest in mouse SMA-560 cells assessed as accumulation at sub G1 phase at 0.1 uM incubated for 72 hrs by propidium iodide/RNase staining based flow cytomtery (Rvb= 2%). In kind it is functional.
Data set [3] has as its system SMA-560. Kind of data set: Antitumor activity against mouse SMA-560 cells xenografted in VM/Dk mouse assessed as decrease in tumor volume at 100 mg/kg,po daily with 12 Gy irradition after 2days of treatment initiation by H and E staining based microscopy. In kind it is functional, organism-based.
Data set [4] relates to SMA-560. The experiment in a line: Anti-clonogenicic activity in mouse SMA-560 cells assessed as reduction in colony formation at 0.001 to 10 uM and measured after 10 days by MTT based clonogenic survival assay. In kind it is functional, cell-based. Conditions: dose 0.001-10 µM, time 10.0 day.
Data set [5] concerns the target Epithelial discoidin domain-containing receptor 1 (Homo sapiens, UniProt Q08345). Kind of data set: Binding affinity to DDR1 (unknown origin) assessed as dissociation constant by KINOME scan assay.
The subject of data set [6] is SMA-560. The experiment in a line: Anti-clonogenicic activity in mouse SMA-560 cells assessed as reduction in colony formation at 0.1 to 1 uM preincubated for 6 hrs followed by temozolomide addition and measured after 10 days by MTT based clonogenic survival assay. The format is functional, cell-based. Conditions: dose 0.1-1 µM, time 246.0 hrs.
Data set [7] concerns SMA-497. Kind of data set: Antitumor activity against mouse SMA-497 cells xenografted in VM/Dk mouse assessed as tumor cell proliferation at 100 mg/kg,po daily by Ki67 staining based immunohistochemistry analysis. The format is functional, organism-based.
Data set [8] has as its system SMA-497. Kind of data set: Antitumor activity against mouse SMA-497 cells xenografted in VM/Dk mouse assessed as increase in number of tumor-infiltrating CD11b positive monocytes/microglia in tumor at 100 mg/kg,po daily by immunohistochemistry analysis. In kind it is functional, organism-based.
The test system of data set [9] is SMA-497. Kind of data set: Antitumor activity against mouse SMA-497 cells xenografted in VM/Dk mouse assessed as decrease in number of CD31-positive intra-tumoral vessels in tumor at 100 mg/kg,po daily by immunohistochemistry analysis. The format is functional, organism-based.
Data set [10] concerns SMA-560. Kind of data set: Anti-clonogenicic activity in mouse SMA-560 cells assessed as reduction in colony formation at 0.1 to 1 uM preincubated for 6 hrs followed by 1 to 9 Gy irradiation with and measured after 10 days by MTT based clonogenic survival assay. Conditions: dose 0.1-1 µM, time 246.0 hrs. In kind it is functional, cell-based.
Data set [11] relates to SMA-560. The experiment in a line: In vivo inhibition of TIE-2 in VM/Dk mouse xenografted with mouse SMA-560 cells assessed as decrease in TIE-2 expression in brain blood vessels at 100 mg/kg,po daily with 12 Gy irradition after 2days of treatment initiation by immunohistochemistry analysis. The format is functional, organism-based.
Data set [12] has as its system SMA-497. The experiment in a line: Antitumor activity against mouse SMA-497 cells xenografted in VM/Dk mouse assessed as increase in number of tumor-infiltrating CD11b positive monocytes/microglia in tumor at 100 mg/kg,po daily with 12 Gy irradition after 2days of treatment initiation by immunohistochemistry analysis. In kind it is functional, organism-based.
Data set [13] deals with SMA-497. Kind of data set: Antitumor activity against mouse SMA-497 cells xenografted in VM/Dk mouse assessed as decrease in tumor volume at 100 mg/kg,po daily by H and E staining based microscopy. The format is functional, organism-based.
Data set [14] has as its system SMA-560. The experiment in a line: Induction of apoptosis in mouse SMA-560 cells assessed as late apoptotic cells at 0.1 uM incubated for 72 hrs by Annexin V-FITC/PI staining based flow cytometric analysis (reference value: 1.83%). In kind it is functional.
The nature of data set [15]: Toxicity in VM/Dk mouse xenografted with mouse SMA-497 cells assessed as survival rate at 100 mg/kg,po daily (Rvb=14 to 15%). The format is organism-based. The conditions noted are these: in vivo.
Data set [16] concerns SMA-497. The experiment in a line: Antitumor activity against mouse SMA-497 cells xenografted in VM/Dk mouse assessed as decrease in tumor cell proliferation at 100 mg/kg,po daily with 12 Gy irradition after 2days of treatment initiation by Ki67 staining based immunohistochemistry analysis. In kind it is functional, organism-based.
The subject of data set [17] is SMA-560. Kind of data set: Induction of apoptosis in mouse SMA-560 cells assessed as live cells at 0.1 uM incubated for 72 hrs by Annexin V-FITC/PI staining based flow cytometric analysis (reference value: 84.6%). In kind it is functional.
Data set [18] deals with SMA-497. Kind of data set: Anti-clonogenicic activity in mouse SMA-497 cells assessed as reduction in colony formation at 0.001 to 10 uM and measured after 10 days by MTT based clonogenic survival assay. In kind it is functional, cell-based. Conditions: dose 0.001-10 µM, time 10.0 day.
The target in data set [19] is T1, Discoidin domain-containing receptor 2 (Homo sapiens, UniProt Q16832).
T1 sequence (Q16832 whole entry): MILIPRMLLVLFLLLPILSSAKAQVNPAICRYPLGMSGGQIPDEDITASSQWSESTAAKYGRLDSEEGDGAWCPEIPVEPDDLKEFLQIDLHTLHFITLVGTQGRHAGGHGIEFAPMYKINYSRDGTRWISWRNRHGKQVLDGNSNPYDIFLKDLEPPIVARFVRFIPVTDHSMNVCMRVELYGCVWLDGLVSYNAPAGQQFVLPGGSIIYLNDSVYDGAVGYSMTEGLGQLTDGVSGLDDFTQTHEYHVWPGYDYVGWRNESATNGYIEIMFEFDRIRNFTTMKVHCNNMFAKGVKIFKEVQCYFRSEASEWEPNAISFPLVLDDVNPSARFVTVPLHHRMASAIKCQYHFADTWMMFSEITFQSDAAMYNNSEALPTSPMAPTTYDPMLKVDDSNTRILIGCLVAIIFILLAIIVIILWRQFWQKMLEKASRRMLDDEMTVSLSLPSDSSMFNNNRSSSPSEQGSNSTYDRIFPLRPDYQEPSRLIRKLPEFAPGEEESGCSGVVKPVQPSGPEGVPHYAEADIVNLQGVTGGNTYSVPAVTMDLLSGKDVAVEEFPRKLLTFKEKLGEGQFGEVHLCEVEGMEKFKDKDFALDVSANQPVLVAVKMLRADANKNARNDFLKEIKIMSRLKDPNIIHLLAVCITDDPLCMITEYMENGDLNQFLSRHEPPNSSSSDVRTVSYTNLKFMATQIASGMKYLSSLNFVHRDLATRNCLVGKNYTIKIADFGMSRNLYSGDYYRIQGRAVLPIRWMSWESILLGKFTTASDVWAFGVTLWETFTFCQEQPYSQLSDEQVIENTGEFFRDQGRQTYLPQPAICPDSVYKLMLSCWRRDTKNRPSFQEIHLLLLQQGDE
The experiment in a line: Binding affinity to DDR2 (unknown origin) assessed as dissociation constant by KINOME scan assay.

The nature of data set [20]: Toxicity in C57Bl/6 mouse xenografted with mouse GL261 cells assessed as survival rate at 100 mg/kg,po daily (Rvb=13%). The format is organism-based. The conditions noted are these: in vivo.
The subject of data set [21] is GL261. Kind of data set: Anti-clonogenicic activity in mouse GL261 cells assessed as reduction in colony formation at 0.001 to 10 uM and measured after 10 days by MTT based clonogenic survival assay. In kind it is functional, cell-based. The conditions noted are these: dose 0.001-10 µM, time 10.0 day.
The subject of data set [22] is GL261. Kind of data set: Antitumor activity against mouse GL261 cells xenografted in C57Bl/6 mouse assessed as tumor cell proliferation at 100 mg/kg,po daily by Ki67 staining based immunohistochemistry analysis. In kind it is functional, organism-based.
The subject of data set [23] is SMA-560. The experiment in a line: Antitumor activity against mouse SMA-560 cells xenografted in VM/Dk mouse assessed as tumor cell proliferation at 100 mg/kg,po daily by Ki67 staining based immunohistochemistry analysis. In kind it is functional, organism-based.

Chain of Epithelial discoidin domain-containing receptor 1 (Q08345 whole entry, the tested form may be a part): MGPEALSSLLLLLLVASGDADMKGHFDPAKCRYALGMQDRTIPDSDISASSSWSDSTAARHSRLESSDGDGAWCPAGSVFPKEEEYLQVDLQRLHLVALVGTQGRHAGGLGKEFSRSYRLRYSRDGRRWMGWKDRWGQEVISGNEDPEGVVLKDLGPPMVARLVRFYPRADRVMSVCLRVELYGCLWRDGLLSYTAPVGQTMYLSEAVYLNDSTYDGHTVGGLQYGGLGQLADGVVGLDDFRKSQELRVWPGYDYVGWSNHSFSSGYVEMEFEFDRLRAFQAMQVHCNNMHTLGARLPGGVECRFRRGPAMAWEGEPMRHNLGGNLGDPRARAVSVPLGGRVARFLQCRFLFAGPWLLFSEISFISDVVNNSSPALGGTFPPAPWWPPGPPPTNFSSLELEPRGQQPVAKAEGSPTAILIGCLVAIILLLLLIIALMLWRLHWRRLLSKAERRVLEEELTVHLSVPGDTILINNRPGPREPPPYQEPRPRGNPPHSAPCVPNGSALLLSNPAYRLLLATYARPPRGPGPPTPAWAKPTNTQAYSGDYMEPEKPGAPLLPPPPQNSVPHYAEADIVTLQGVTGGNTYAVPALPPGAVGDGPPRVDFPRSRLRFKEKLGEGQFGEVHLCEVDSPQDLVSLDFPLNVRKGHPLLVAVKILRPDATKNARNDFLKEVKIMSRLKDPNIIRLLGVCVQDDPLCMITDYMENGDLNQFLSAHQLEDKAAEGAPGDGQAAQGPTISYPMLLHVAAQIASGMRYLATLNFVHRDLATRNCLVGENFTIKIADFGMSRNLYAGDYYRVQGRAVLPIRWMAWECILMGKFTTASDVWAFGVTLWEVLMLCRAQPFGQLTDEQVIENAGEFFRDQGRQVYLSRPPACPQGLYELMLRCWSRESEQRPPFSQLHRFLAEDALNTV

What is called Kd is the free concentration of one partner at which half of the binding sites on the other are occupied at equilibrium, for simple one-to-one binding. On to `Cc1cc(C)c(-n2ccn3nc(-c4cccnc4)cc23)cc1NC(=O)c1cc(C#N)cc(S(F)(F)(F)(F)F)c1` [BAY-826], for which the Activity with SMA-560 [1] is 8.81%; in the data set on SMA-560 [2], 2%; in the data set on SMA-560 [14], 0.66%; in the data set on SMA-560 [17], 90.5%. Further, the result in the data set with SMA-560 [3], with SMA-497 [8], in the data set on SMA-497 [12] and with SMA-497 [16] was Active. For the same compound, the outcome with SMA-560 [4], with SMA-560 [6], in the data set with SMA-497 [7], in the data set on SMA-497 [9], in the data set with SMA-560 [10] and in the data set with SMA-497 [13] was inactive. Besides, the result in the data set on SMA-497 [18], with GL261 [21], in the data set with GL261 [22] and in the data set with SMA-560 [23] was inactive. Besides, the dissociation constant Kd in data set [5] was found to be 0.4 nM; in data set [19], 1.3 nM. In the data set with SMA-560 [11], the inhibition result was “Active”. The values for the Survival in [15] and in data set [20] were 17% and 15%, respectively.
